Laboratory results reported in patent US9108930B2, “N1- and N2-carbamoyl-1,2,3-triazole serine hydrolase inhibitors and methods” (The Scripps Research Institute, priority 2011, dated 2015).

Legend:
APEH = target: T1, APEH (Mus musculus, UniProt Q8R146); test: Fluorogenic APEH substrate assay on brain proteomes of treated mice; type: in vivo; conditions: 0.4 mg/kg; brain proteome
T1 sequence (Q8R146 1-732): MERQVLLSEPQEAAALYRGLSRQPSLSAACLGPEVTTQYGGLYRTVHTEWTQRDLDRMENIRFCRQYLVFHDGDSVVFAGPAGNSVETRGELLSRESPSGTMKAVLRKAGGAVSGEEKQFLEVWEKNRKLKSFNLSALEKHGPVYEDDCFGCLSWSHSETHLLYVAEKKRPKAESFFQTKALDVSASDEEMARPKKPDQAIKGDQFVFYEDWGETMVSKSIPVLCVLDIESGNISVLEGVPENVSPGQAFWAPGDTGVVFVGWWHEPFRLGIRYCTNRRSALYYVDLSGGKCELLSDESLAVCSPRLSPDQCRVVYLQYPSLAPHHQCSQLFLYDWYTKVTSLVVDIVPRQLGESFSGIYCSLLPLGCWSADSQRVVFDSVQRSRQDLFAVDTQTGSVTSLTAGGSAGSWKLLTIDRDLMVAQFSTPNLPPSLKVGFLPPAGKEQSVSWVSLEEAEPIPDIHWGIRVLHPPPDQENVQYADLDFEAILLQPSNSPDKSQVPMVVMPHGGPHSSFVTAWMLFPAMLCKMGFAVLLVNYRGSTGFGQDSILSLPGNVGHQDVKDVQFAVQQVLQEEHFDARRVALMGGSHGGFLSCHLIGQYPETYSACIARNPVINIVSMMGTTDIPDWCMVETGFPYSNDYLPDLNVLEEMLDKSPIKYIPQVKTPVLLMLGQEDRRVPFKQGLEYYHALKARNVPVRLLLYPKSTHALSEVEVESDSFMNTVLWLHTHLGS
Protocol: APEH activity assay was performed using fluorogenic substrate N-Acetyl-L-alanine p-nitroanilide.
Soluble brain proteomes (100 μL of 1 mg/mL protein) from AA74-1 (or vehicle)-injected mice were treated in a 96-well plate with N-acetyl-L-alanine 4-nitroanilide (100 μM final concentration) and the samples were incubated for 2 h at 37° C. Relative absorbance was measured with a plate reader at […]. Inhibition curves were generated using PRISM® software (GraphPad). Calculated values represent means±s.e.m for three independent experiments.

[1] = system: serine hydrolases (SHs) in mouse T-cell proteomes; test: Gel-based competitive ABPP, mouse T-cell proteomes in vitro, SH reactivity profile; type: biochemical; conditions: 100 nM, 30 minutes at 37° C.

CC(C)CC(O)(CC(C)C)c1cnn(C(=O)N2CCCC2)n1 [AA74-1]
APEH inhibition by substrate assay (APEH): Complete inhibition of APEH
cross-reactivity with other SHs [1]: not interacting with other SHs
